Converted amounts (≈) assume the structure as drawn.
Details: for aqueous solubility: pH 6.8

Question: What does the source list for `CNc1nc(C2CCNCC2)nc2c1CN(C)CC2`?
Answer: intrinsic clearance, human liver microsomes: 9.51 mL/min/kg; intrinsic clearance, rat liver microsomes: 29.1 mL/min/kg; aqueous solubility: 36.2 µg/mL (≈ 139 µM)

Question: For `Cc1noc2ncnc(N3CCCN(C(=O)C4CC4)CC3)c12`, which MDR1-MDCK efflux ratio is on record?
Answer: 21.2

Question: And the intrinsic clearance, human liver microsomes?
Answer: 6.43 mL/min/kg

Question: And the intrinsic clearance, rat liver microsomes?
Answer: 149 mL/min/kg

Question: What does the source list for `CC1(C)[C@@H]2C[C@H]1[C@@]1(O)[C@@H](C2)Oc2c(ccc(O)c2C(=O)NCCNS(C)(=O)=O)[C@@H]1O`?
Answer: MDR1-MDCK efflux ratio: 91; intrinsic clearance, human liver microsomes: 29.3 mL/min/kg; intrinsic clearance, rat liver microsomes: 134 mL/min/kg

Question: For `CN(Cc1nnc(C2CC2)n1C)C(=O)C1C2CC3CC(C2)CC1C3` (centres undefined), which MDR1-MDCK efflux ratio is on record?
Answer: 11.1

Question: What about the intrinsic clearance, human liver microsomes of the same molecule?
Answer: 47.8 mL/min/kg

Question: And the intrinsic clearance, rat liver microsomes?
Answer: 951 mL/min/kg

Question: And the aqueous solubility?
Answer: 46.4 µg/mL (≈ 141 µM)

Question: With `Cc1nc(-c2cc(C)on2)n(CCc2ccccc2)n1` as the molecule, how does the MDR1-MDCK efflux ratio read?
Answer: 0.6

Question: And the intrinsic clearance, human liver microsomes?
Answer: 92.1 mL/min/kg

Question: And the intrinsic clearance, rat liver microsomes?
Answer: 3950 mL/min/kg

Question: What about the aqueous solubility of the same molecule?
Answer: 21.5 µg/mL (≈ 80.2 µM)

Question: Which MDR1-MDCK efflux ratio does the source give for `Cc1ccc(CNc2ncnn2C)nc1` here?
Answer: 0.685

Question: And the intrinsic clearance, human liver microsomes?
Answer: ≤ 4.74 mL/min/kg

Question: And the intrinsic clearance, rat liver microsomes?
Answer: ≤ 10.7 mL/min/kg

Question: What does the source list for `CCN1CCOC(C(=O)N2CCC(c3cn[nH]c3)CC2)C1` (centres undefined)?
Answer: MDR1-MDCK efflux ratio: 3.51; intrinsic clearance, human liver microsomes: ≤ 4.74 mL/min/kg

Question: For `O=C1CN(c2ccc(Nc3nccc(C(F)(F)F)n3)cn2)CCN1`, which MDR1-MDCK efflux ratio is on record?
Answer: 2.94

Question: And the fraction unbound, human plasma?
Answer: 0.35

Question: What about the fraction unbound, rat plasma of the same molecule?
Answer: 0.271

Question: What about the intrinsic clearance, human liver microsomes of the same molecule?
Answer: ≤ 4.74 mL/min/kg

Question: And the intrinsic clearance, rat liver microsomes?
Answer: 24.4 mL/min/kg

Question: What about the aqueous solubility of the same molecule?
Answer: 51.3 µg/mL (≈ 152 µM)

Question: Which MDR1-MDCK efflux ratio does the source give for `O=C(NC1CCCC1)N1CCN(c2nccn3nc4c(c23)CCCC4)CC1` here?
Answer: 2

Question: And the intrinsic clearance, human liver microsomes?
Answer: 118 mL/min/kg

Question: What about the intrinsic clearance, rat liver microsomes of the same molecule?
Answer: 464 mL/min/kg

Question: And the aqueous solubility?
Answer: 17.1 µg/mL (≈ 46.4 µM)

Question: For `Cc1nn(C)c(C)c1-c1cc(C(C)(C)C)nc(N(C)C)n1`, which MDR1-MDCK efflux ratio is on record?
Answer: 0.619

Question: And the intrinsic clearance, human liver microsomes?
Answer: 51.6 mL/min/kg

Question: And the intrinsic clearance, rat liver microsomes?
Answer: 366 mL/min/kg

Question: Which MDR1-MDCK efflux ratio does the source give for `COc1ccc(C)cc1-n1ccc(C(=O)NC(C)C)n1` here?
Answer: 0.545

Question: What about the intrinsic clearance, human liver microsomes of the same molecule?
Answer: 62.5 mL/min/kg

Question: And the intrinsic clearance, rat liver microsomes?
Answer: 334 mL/min/kg

Question: And the aqueous solubility?
Answer: 35.7 µg/mL (≈ 131 µM)

Question: With `CCN1CCN(S(=O)(=O)c2c[nH]c(C(C)C)n2)c2ccccc21` as the molecule, how does the MDR1-MDCK efflux ratio read?
Answer: 20.2

Question: What about the intrinsic clearance, human liver microsomes of the same molecule?
Answer: 258 mL/min/kg

Question: And the intrinsic clearance, rat liver microsomes?
Answer: 248 mL/min/kg

Question: What does the source list for `CN(C)c1ccc(C(=O)N2CCN3C(=O)N(Cc4ccccc4)C(=O)[C@H]3C2)cc1`?
Answer: MDR1-MDCK efflux ratio: 1.61; intrinsic clearance, human liver microsomes: 30 mL/min/kg; intrinsic clearance, rat liver microsomes: 389 mL/min/kg; aqueous solubility: 13.6 µg/mL (≈ 34.7 µM)

Question: Which results are given for `CCNC(=O)C1CN(c2cccc(C#N)n2)C1`?
Answer: MDR1-MDCK efflux ratio: 2.07; intrinsic clearance, human liver microsomes: ≤ 4.74 mL/min/kg; intrinsic clearance, rat liver microsomes: ≤ 10.7 mL/min/kg; aqueous solubility: 42.9 µg/mL (≈ 186 µM)

Question: Which MDR1-MDCK efflux ratio does the source give for `CCOC(=O)C1(Cc2cc(-c3ccc(F)cc3)no2)CCN(Cc2ccccc2O)CC1` here?
Answer: 2.16

Question: What about the intrinsic clearance, human liver microsomes of the same molecule?
Answer: 155 mL/min/kg

Question: And the intrinsic clearance, rat liver microsomes?
Answer: 790 mL/min/kg

Question: What about the aqueous solubility of the same molecule?
Answer: 6.94 µg/mL (≈ 15.8 µM)

Question: Which intrinsic clearance, human liver microsomes does the source give for `Cc1ccc2[nH]c(CNC(=O)c3cc(C(F)F)nn3C)nc2c1C` here?
Answer: 19.9 mL/min/kg

Question: And the intrinsic clearance, rat liver microsomes?
Answer: 186 mL/min/kg

Question: With `O=c1ncn2nc(Sc3ccc(F)cc3F)ccc2c1-c1c(Cl)cccc1Cl` as the molecule, how does the MDR1-MDCK efflux ratio read?
Answer: 8.01

Question: What about the intrinsic clearance, human liver microsomes of the same molecule?
Answer: 14.6 mL/min/kg

Question: And the intrinsic clearance, rat liver microsomes?
Answer: 90.4 mL/min/kg

Question: And the aqueous solubility?
Answer: 12.9 µg/mL (≈ 29.6 µM)

Question: Which results are given for `Cc1ccc(CN)c(-n2cc(Cl)cn2)n1`?
Answer: MDR1-MDCK efflux ratio: 0.396; intrinsic clearance, human liver microsomes: ≤ 4.74 mL/min/kg; intrinsic clearance, rat liver microsomes: 27.4 mL/min/kg

Question: Which MDR1-MDCK efflux ratio does the source give for `CN1CC[C@@H](c2c(O)cc(O)c3c(=O)cc(-c4ccccc4Cl)oc23)[C@@H]1CO` here?
Answer: 122

Question: What about the intrinsic clearance, human liver microsomes of the same molecule?
Answer: 27 mL/min/kg

Question: And the intrinsic clearance, rat liver microsomes?
Answer: 142 mL/min/kg

Question: What about the aqueous solubility of the same molecule?
Answer: 64.9 µg/mL (≈ 162 µM)

Question: For `COc1cc(OC)cc(C(=O)Nc2nc3c(s2)COc2ccccc2-3)c1`, which aqueous solubility is on record?
Answer: 0.39 µg/mL (≈ 1.06 µM)

Question: For `Cn1cc(C(=O)O)c(C2CCCCC2)n1`, which MDR1-MDCK efflux ratio is on record?
Answer: 1.04

Question: What about the intrinsic clearance, human liver microsomes of the same molecule?
Answer: ≤ 4.74 mL/min/kg

Question: What about the intrinsic clearance, rat liver microsomes of the same molecule?
Answer: ≤ 10.7 mL/min/kg

Question: And the aqueous solubility?
Answer: 33.6 µg/mL (≈ 161 µM)

Question: With `COc1cc(Nc2ncc(F)c(Nc3ccc4c(n3)NC(=O)C(C)(C)O4)n2)cc(OC)c1OC` as the molecule, how does the intrinsic clearance, human liver microsomes read?
Answer: 133 mL/min/kg

Question: And the intrinsic clearance, rat liver microsomes?
Answer: 122 mL/min/kg
